In patent publication US12104188B2, “Modified caspase-9 polypeptides and methods of use thereof” (Allogene Therapeutics, Inc., priority 2017, dated 2024):

Tests used:
[1] = humans; Iuliucci J D, et al., 2001; cited from earlier work
[2] = molecular target: FKBP12 polypeptide with the F36V mutation (Homo sapiens, UniProt P62942, F37V); details: cited from earlier work
[3] = system: primary T cells; assay: Induction of apoptosis in T cells containing chimeric caspase 9 proteins: % live GFP positive cells by flow cytometry, with or without AP1903; type: cell-based, human; details: for % GFP, AP1903 / % GFP, 0 mM AP1903: % GFP positive cells, 4 days after AP1903
Procedure: Primary T cells were prepared from each of four different human blood donors (“Donor 1”, “Donor 2”, “Donor 3” and “Donor 8”) as follows.
Previously-frozen primary T cells were thawed and activated with ImmunoCult Human CD3/CD28 T cell activator (StemCell, Cat #10971). 48 hours later, a lentiviral vector which contains a polynucleotide encoding a chimeric caspase 9 protein as described above was added to the activated primary T cells for transduction. Different lentiviral vectors were added to different samples of the primary T cells to test the activity of the different chimeric caspase 9 proteins. The respective lentiviral vectors were provided to the T cells in filtered supernatant from the HEK293T cells. T cells transduced with a polynucleotide encoding a chimeric caspase 9 protein subsequently expressed the respective chimeric caspase 9 protein.
T cells containing different chimeric caspase 9 proteins prepared as described in part A above were assayed for apoptosis in response to the dimeric ligand AP1903.
[…] On the 3rd or 4th day, the cells were measured by flow cytometry to determine the percentage of live cells that are GFP positive (+). (GFP is a marker for the chimeric caspase 9 protein.) Thus, it can be extrapolated that the greater the % of live GFP+ cells, the lower the apoptotic activity of the respective chimeric caspase 9 protein in this assay.

[4] = system: primary T cells from Donor #8; assay: Example 2: induction of apoptosis in Donor #8 T cells comprising chimeric caspase-9 proteins with or without a CAR, in response to AP1903; type: cell-based, human; details: Day 1 post-AP1903, Donor #8 primary T cells, FIG. 6
Procedure: T cells derived from donor #8 comprising various different chimeric caspase 9 proteins, some of which further comprise a CAR were prepared as described in part 1A above and were assayed for expression of chimeric caspase-9 and for induced apoptosis in response to the dimeric ligand AP1903.
For each assay, about 1,000,000 cells containing a particular chimeric caspase 9 protein were incubated with or without 10 nM AP1903 for 3 or 4 days. On days 1, 2 and 3 post-AP1903 (FIGS. 6, 7, and 8, respectively), the cells were measured by flow cytometry to determine the percentage of live cells that are GFP positive (+) (GFP is a marker for the chimeric caspase 9 protein). Thus, it can be extrapolated that the greater the % of live GFP+ cells, the lower the apoptotic activity of the respective chimeric caspase 9 protein in this assay.
In FIGS. 6-9, for each different chimeric caspase-9 protein, expressed with or without a CAR, there are two adjacent bars. The left-side bar is for the cells incubated without AP1903, and the right-side bar is for the corresponding cells incubated with AP1903. […] This observation is consistent with the application of the D330M-D379E construct as a fast-acting “safety switch” for CAR-T therapies.

[5] = Table 3, Donor # 1, primary T cells
[6] = Table 4, Donor # 2, primary T cells
[7] = Table 5, Donor # 1, primary T cells
[8] = Table 6, Donor # 1, primary T cells
[9] = Table 7, Donor # 3, primary T cells

Sequence of FKBP12 polypeptide with the F36V mutation (P62942 whole entry F37V): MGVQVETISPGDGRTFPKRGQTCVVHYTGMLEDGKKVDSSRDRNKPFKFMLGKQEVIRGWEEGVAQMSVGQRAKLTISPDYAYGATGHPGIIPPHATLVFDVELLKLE

Compound	well-tolerated dose [1]	affinity for FKBP12 with the F36V mutation compared with wild-type FKBP12 [2]	affinity of FKBP12 containing the F36V mutation for AP1903 [2]	% GFP, AP1903 [3, 5] [%]	% GFP, 0 mM AP1903 [3, 5] [%]	% GFP, AP1903 [3, 6] [%]	% GFP, 0 mM AP1903 [3, 6] [%]	% GFP, AP1903 [3, 7] [%]	% GFP, 0 mM AP1903 [3, 7] [%]	% GFP, AP1903 [3, 8] [%]	% GFP, 0 mM AP1903 [3, 8] [%]	% GFP, AP1903 [3, 9] [%]	% GFP, 0 mM AP1903 [3, 9] [%]	activity profile (high % GFP+ without AP1903, large difference with AP1903) ([3]; assessment of Tables 3-7)	speed of induced apoptosis relative to the N405Q construct [4]
CC[C@H](C(=O)N1CCCC[C@H]1C(=O)O[C@H](CCc1ccc(OC)c(OC)c1)c1cccc(OCC(=O)NCCNC(=O)COc2cccc([C@@H](CCc3ccc(OC)c(OC)c3)OC(=O)[C@@H]3CCCCN3C(=O)[C@@H](CC)c3cc(OC)c(OC)c(OC)c3)c2)c1)c1cc(OC)c(OC)c(OC)c1 (relative stereo) [AP1903, 2-Piperidinecarboxylic acid, 1-[(2S)-1-oxo-2-(3,4,5-trimethoxyphenyl)butyl]-, 1,2 ethanediylbis[imino(2-oxo-2,1-ethanediyl)oxy-3,1-phenylene[(1R)-3-(3,-4-dimethoxyphenyl)propylidene]]ester, [2S [1(R*),2R*[S*[S*[1(R*),2R*]]]]]-(9Cl)]	at least 1 mg/kg	much greater affinity	high affinity	–	–	–	–	–	–	–	–	–	–	–	–
D330M-D379E: chimeric caspase 9 protein (SEQ ID NO: 6): FKBP12 F36V dimerization domain, linker, caspase-9 polypeptide without CARD, D330M-D379E double mutation	–	–	–	7	72	2	35	6.95	72.3	5.04	53.4	7	71	attractive activity profiles	approximately 3 fold
